Target: T1, human mPGES-1 (Homo sapiens, UniProt O14684)
T1 construct: made in house; host or cells: COS-1 cells (transient transfection; microsomal fraction used as enzyme)
T1 sequence (O14684 1-152): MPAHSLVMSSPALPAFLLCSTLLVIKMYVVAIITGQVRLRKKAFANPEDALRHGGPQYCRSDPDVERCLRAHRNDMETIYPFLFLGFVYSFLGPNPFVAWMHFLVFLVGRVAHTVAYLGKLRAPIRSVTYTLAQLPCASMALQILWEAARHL
Test: Test for mPGES-1 inhibitory activity (microsomal enzyme, PGE2 EIA)
Assay type: biochemical
Details: microsomes from COS-1 cells transfected with human mPGES-1 cDNA; substrate PGH2 1 μM; 4° C., 4 minutes; PGE2 measured by EIA; read-out: h mPGES1 IC50
Description: Test Example 1: Test for mPGES-1 Inhibitory Activity
Microsomes were prepared from COS-1 cells transiently transfected with a plasmid containing human mPGES-1 cDNA, and used as mPGES-1 enzyme. The mPGES-1 enzyme was diluted with a sodium phosphate buffer (pH 7.2) containing reduced glutathione (2.5 mM) and EDTA (1 mM), DMSO or a DMSO solution of a test compound (final concentration of DMSO was 2%) was added to the enzyme, and the mixture was preincubated at 4° C. for 15 minutes. Then, PGH2 (Prostaglandin H2) as the substrate was added at a final concentration of 1 μM to start the enzymatic reaction, and after incubation at 4° C. for 4 minutes, a solution of ferric chloride (25 mM) and citric acid (50 mM) was added to terminate the enzymatic reaction. Generated PGE2 (Prostaglandin E2) was measured by using Prostaglandin E2 Express EIA Kit (Cayman Chemical). IC50 values were determined by using a standard method.

IC50 | SMILES
< 1 nM | Cc1cccc2ccc(N3CCC(C(=O)NCc4ccc(C(F)(F)F)c(-c5nc(C(C)C)cc(=O)[nH]5)c4F)CC3)nc12 [Example 11, N-[2-fluoro-3-(4-isopropyl-6-oxo-1,6-dihydropyrimidin-2-yl)-4-(trifluoromethyl)benzyl]-1-(8-methylquinolin-2-yl)piperidine-4-carboxamide]
2.1 nM | Cc1cccc2ccc(N3CCC(C(=O)NCc4ccc(C(F)(F)F)c(-c5nc(C(F)F)cc(=O)[nH]5)c4F)CC3)nc12 [Example 12, N-{3-[4-(difluoromethyl)-6-oxo-1,6-dihydropyrimidin-2-yl]-2-fluoro-4-(trifluoromethyl)benzyl}-1-(8-methylquinolin-2-yl)piperidine-4-carboxamide]
2.4 nM | Cc1nc(-c2c(C(F)(F)F)ccc(CNC(=O)C3CCN(c4ccc5cccc(C)c5n4)CC3)c2F)[nH]c(=O)c1C [Example 13, N-[3-(4,5-dimethyl-6-oxo-1,6-dihydropyrimidin-2-yl)-2-fluoro-4-(trifluoromethyl)benzyl]-1-(8-methylquinolin-2-yl)piperidine-4-carboxamide]
< 1 nM | Cc1nc(-c2c(C(F)(F)F)ccc(CNC(=O)C3CCN(c4ccc5cccc(C)c5n4)CC3)c2F)[nH]c(=O)c1F [Example 14, N-[2-fluoro-3-(5-fluoro-4-methyl-6-oxo-1,6-dihydropyrimidin-2-yl)-4-(trifluoromethyl)benzyl]-1-(8-methylquinolin-2-yl)piperidine-4-carboxamide]
< 1 nM | Cc1cccc2ccc(N3CCC(F)(C(=O)NCc4ccc(C(F)(F)F)c(-c5nc(C(F)(F)F)cc(=O)[nH]5)c4F)CC3)nc12 [Example 15, 4-fluoro-N-{2-fluoro-3-[6-oxo-4-(trifluoromethyl)-1,6-dihydropyrimidin-2-yl]-4-(trifluoromethyl)benzyl}-1-(8-methylquinolin-2-yl)piperidine-4-carboxamide]
< 10 nM | Cc1cccc(N2CCC(C(=O)NCc3ccc(C(F)(F)F)c(-c4nc(C(F)(F)F)cc(=O)[nH]4)c3F)CC2)n1 [Example 17, N-{2-fluoro-3-[6-oxo-4-(trifluoromethyl)-1,6-dihydropyrimidin-2-yl]-4-(trifluoromethyl)benzyl}-1-(6-methylpyridin-2-yl)piperidine-4-carboxamide]
< 1 nM | O=C(NCc1ccc(C(F)(F)F)c(-c2nc(C(F)(F)F)cc(=O)[nH]2)c1F)C1CCN(c2ccccn2)CC1 [Example 19, N-{2-fluoro-3-[6-oxo-4-(trifluoromethyl)-1,6-dihydropyrimidin-2-yl]-4-(trifluoromethyl)benzyl}-1-(pyridin-2-yl)piperidine-4-carboxamide]
< 1 nM | O=C(NCc1ccc(C(F)(F)F)c(-c2nc(C(F)(F)F)cc(=O)[nH]2)c1F)C1CCN(c2ccc(C(F)(F)F)cn2)CC1 [Example 20, N-{2-fluoro-3-[6-oxo-4-(trifluoromethyl)-1,6-dihydropyrimidin-2-yl]-4-(trifluoromethyl)benzyl}-1-[5-(trifluoromethyl)pyridin-2-yl]piperidine-4-carboxamide]
< 1 nM | O=C(NCc1ccc(C(F)(F)F)c(-c2nc(C(F)(F)F)cc(=O)[nH]2)c1F)C1CCN(c2ccc(C(F)(F)F)nc2)CC1 [Example 21, N-{2-fluoro-3-[6-oxo-4-(trifluoromethyl)-1,6-dihydropyrimidin-2-yl]-4-(trifluoromethyl)benzyl}-1-[6-(trifluoromethyl)pyridin-3-yl]piperidine-4-carboxamide]
4.9 nM | O=C(NCc1ccc(C(F)(F)F)c(-c2nc(C(F)(F)F)cc(=O)[nH]2)c1F)C1CCN(c2cccc(C(F)(F)F)n2)CC1 [Example 22, N-{2-fluoro-3-[6-oxo-4-(trifluoromethyl)-1,6-dihydropyrimidin-2-yl]-4-(trifluoromethyl)benzyl}-1-[6-(trifluoromethyl)pyridin-2-yl]piperidine-4-carboxamide]
4.8 nM | CCc1cc(=O)[nH]c(-c2c(C(F)(F)F)ccc(CNC(=O)C3CCN(c4ccc(C(F)(F)F)cn4)CC3)c2F)n1 [Example 23, N-[3-(4-ethyl-6-oxo-1,6-dihydropyrimidin-2-yl)-2-fluoro-4-(trifluoromethyl)benzyl]-1-[5-(trifluoromethyl)pyridin-2-yl]piperidine-4-carboxamide]
76 nM | CCc1cc(=O)[nH]c(-c2c(C(F)(F)F)ccc(CNC(=O)C3CCN(c4cccc(C)n4)CC3)c2F)n1 [Example 24, N-[3-(4-ethyl-6-oxo-1,6-dihydropyrimidin-2-yl)-2-fluoro-4-(trifluoromethyl)benzyl]-1-(6-methylpyridin-2-yl)piperidine-4-carboxamide]
< 1 nM | O=C(NCc1ccc(C(F)(F)F)c(-c2nc(C(F)(F)F)cc(=O)[nH]2)c1F)C1CN(c2ccc(C(F)(F)F)cn2)C1 [Example 25, N-{2-fluoro-3-[6-oxo-4-(trifluoromethyl)-1,6-dihydropyrimidin-2-yl]-4-(trifluoromethyl)benzyl}-1-[5-(trifluoromethyl)pyridin-2-yl]azetidine-3-carboxamide]
4.1 nM | O=C(NCc1ccc(C(F)(F)F)c(-c2nc(C(F)(F)F)cc(=O)[nH]2)c1F)C1CN(c2cccc(C(F)(F)F)n2)C1 [Example 26, N-{2-fluoro-3-[6-oxo-4-(trifluoromethyl)-1,6-dihydropyrimidin-2-yl]-4-(trifluoromethyl)benzyl}-1-[6-(trifluoromethyl)pyridin-2-yl]azetidine-3-carboxamide]
< 1 nM | O=C(NCc1ccc(C(F)(F)F)c(-c2nc(C(F)(F)F)cc(=O)[nH]2)c1F)C1CCN(c2ccc(Cl)cn2)CC1 [Example 27, 1-(5-chloropyridin-2-yl)-N-{2-fluoro-3-[6-oxo-4-(trifluoromethyl)-1,6-dihydropyrimidin-2-yl]-4-(trifluoromethyl)benzyl}piperidine-4-carboxamide]
< 1 nM | O=C(NCc1ccc(C(F)(F)F)c(-c2nccc(=O)[nH]2)c1F)C1CCN(c2ccc(C(F)(F)F)cn2)CC1 [Example 28, N-[2-fluoro-3-(6-oxo-1,6-dihydropyrimidin-2-yl)-4-(trifluoromethyl)benzyl]-1-[5-(trifluoromethyl)pyridin-2-yl]piperidine-4-carboxamide]
11 nM | O=C(NCc1ccc(C(F)(F)F)c(-c2nc(C(F)F)cc(=O)[nH]2)c1F)C1CCN(c2ccc(C(F)(F)F)cn2)CC1 [Example 29, N-{3-[4-(difluoromethyl)-6-oxo-1,6-dihydropyrimidin-2-yl]-2-fluoro-4-(trifluoromethyl)benzyl}-1-[5-(trifluoromethyl)pyridin-2-yl]piperidine-4-carboxamide]
< 1 nM | O=C(NCc1ccc(C(F)(F)F)c(-c2nc(C(F)(F)F)cc(=O)[nH]2)c1F)C1CCN(c2ncc(Cl)cc2Cl)CC1 [Example 30, 1-(3,5-dichloropyridin-2-yl)-N-{2-fluoro-3-[6-oxo-4-(trifluoromethyl)-1,6-dihydropyrimidin-2-yl]-4-(trifluoromethyl)benzyl}piperidine-4-carboxamide]
< 1 nM | Cc1cccc2ccc(N3CCC(C(=O)NCc4ccc(Cl)c(-c5nc(C(F)(F)F)cc(=O)[nH]5)c4F)CC3)nc12 [Example 31, N-{4-chloro-2-fluoro-3-[6-oxo-4-(trifluoromethyl)-1,6-dihydropyrimidin-2-yl]benzyl}-1-(8-methylquinolin-2-yl)piperidine-4-carboxamide]
